Data published in patent publication US9782424B2, “Synergistic combination comprising avermectins and a NSAID for tumor inhibition” (Ectin Research AB, priority 2011, dated 2017).

Tests used:
Assay type in all cases: cell-based, human
[1] = tested on: colorectal cell line (HT29); assay: XTT-assay proliferation rate, colorectal cell line HT29
Method: (§1) Commercially available human tumor cell lines were purchased from ATCC (ATCC/LGC-standards, Borás, Sweden). Cell lines from urinary bladder (UM-UC-3, #CRL-1749), colorectal carcinoma (Colo205, #CCL-222 and HT29, #HTB-38), prostate carcinoma (LNCaP, #CRL-1740) and breast carcinoma (ZR-75-1, #CRL-1500) were purchased and stored in liquid nitrogen. Cells were cultured in Roswell Park Memorial Institute media (RPMI-1640) or minimum essential medium with Earl's salts (EMEM) supplemented with 10% Foetal calf serum (FCS, Sigma) and cultured using a 37° C. cell culture incubator (Forma Scientific, NinoLab, Kungsbacka, Sweden) with 5% CO2 humidified atmosphere. Tumor cell lines were handled aseptically using a laminar airflow (LAF) bench (Holten 2448, Ninolab, Sweden) and stored in a liquid nitrogen tank and were initiated in culture as previously described (Falk P. Experimental models of the peritoneal environment: Effects of TGF-beta and Hyaluronan. Göteborg: University of Gothenburg; 2008). Briefly, ampoules of frozen cells were thawed by submerging into a 37° C. water bath for 45 s. Cells were resuspended in 10 ml of preheated RPMI-1640 with 10% FCS and centrifuged in 260 g for 10 min. With supernatant discarded, cell pellets were further resuspended with 5 ml complete medium into 25 cm^2 cell culture flasks (Cell+, Sarstedt, Nümbrecht, Germany). Tumor cells were cultured until sub-confluence and further sub-cultured with Trypsin (0.5%), EDTA (0.2%) solution (T4174, TE-10x, Sigma) in sterile sodium chloride. Culture media was changed two-three times a week. Culture flasks (Cell+, Sarstedt, Nümbrecht, Germany) and culture plates (Falcon/BD, Franklin Lakes, N.J., USA) were used for experimental set-ups. Cells were regularly monitored using an inverted microscope connected to a digital photo equipment (Axiovert 25 and Axiovision, Zeiss, Carl Zeiss AG, Germany) (FIG. 1). Described culture techniques and equipment have been used extensively in the laboratory
The proliferation rates of the different human tumor cell lines were studied using a method based on the conversion of a sodium salt (XTT-assay, Sigma) into a stable orange color that could be analyzed in a spectrophotometer. The color change is proportional to the mitochondrial dehydrogenase activity resulting in an effective technique for measuring cell toxicity (Roehm N W, Rodgers G H, Hatfield S M, Glasebrook A L. An improved colorimetric assay for cell proliferation and viability utilizing the tetrazolium salt XTT. J Immunol Methods 1991;142(2):257-65) or cell proliferation. The color change was measured using a 96-well plate reader with software to calculate the absorbance at 450 nm (V-max/Softmax Pro, Molecular Devices, USA). Cells were cultured until approx 50% confluence and then pre-incubated for 24 h with RPMI-1640 or EMEM containing 1% FCS only. RPMI 1640 and EMEM without phenol red was used during the experiments to reduce the red color background signal in the XTT-assay.
(§2) Prior to the experimental start all cells were gently washed once with RPMI 1640 and EMEM with 1% FCS. Increasing concentrations of substance ivermectin was added with an 8-channel pipette (Titertek, Kem-En-Tec, Taastrup, Denmark) together with sterile pipette tips (Molecular Bioproducts, San Diego, Calif., USA). Cell cultures including active substances were incubated for 24 hours (and 96 hours). Untreated wells including culture medium only served as untreated controls. The XTT-assay substrate was added and after gentle agitation using a micro plate shaker, absorbencies at 450 and 650 nm were measured. Levels from medium were subtracted and compared with control wells, using culture medium only.

[2] = tested on: prostatic cell line (LNCaP); assay: XTT-assay proliferation rate, prostatic cell line; conditions: for Proliferation rate compared to untreated control: LNCaP (Table 5)
Method: Commercially available human tumor cell lines were purchased from ATCC (ATCC/LGC-standards, Borás, Sweden). […] Briefly, ampoules of frozen cells were thawed by submerging into a 37° C. water bath for 45 s. […] With supernatant discarded, cell pellets were further resuspended with 5 ml complete medium into 25 cm^2 cell culture flasks (Cell+, Sarstedt, Nümbrecht, Germany). Tumor cells were cultured until sub-confluence and further sub-cultured with Trypsin (0.5%), EDTA (0.2%) solution (T4174, TE-10x, Sigma) in sterile sodium chloride. Culture media was changed two-three times a week. Culture flasks (Cell+, Sarstedt, Nümbrecht, Germany) and culture plates (Falcon/BD, Franklin Lakes, N.J., USA) were used for experimental set-ups. Cells were regularly monitored using an inverted microscope connected to a digital photo equipment (Axiovert 25 and Axiovision, Zeiss, Carl Zeiss AG, Germany) (FIG. 1). Described culture techniques and equipment have been used extensively in the laboratory
The proliferation rates of the different human tumor cell lines were studied using a method based on the conversion of a sodium salt (XTT-assay, Sigma) into a stable orange color that could be analyzed in a spectrophotometer. […] The color change was measured using a 96-well plate reader with software to calculate the absorbance at 450 nm (V-max/Softmax Pro, Molecular Devices, USA).
as §2, with “Increasing” for “Prior to the experimental start all cells were gently washed once with RPMI 1640 and EMEM with 1% FCS. Increasing”

[3] = tested on: urinary bladder cells (UM-UC-3); assay: Morphology of cultured tumor cells, UM-UC-3; conditions: ivermectin 100 μM, 24 hours (FIG. 6)
Method: as §1, with “With supernatant discarded, cell pellets were further resuspended with 5 ml complete medium into 25 cm^2 cell culture flasks (Cell+, Sarstedt, Nümbrecht, Germany). Tumor cells were cultured until sub-confluence and further sub-cultured with Trypsin (0.5%), EDTA (0.2%) solution (T4174, TE-10x, Sigma) in sterile sodium chloride. Culture media was changed two-three times a week. Culture flasks (Cell+, Sarstedt, Nümbrecht, Germany) and culture plates (Falcon/BD, Franklin Lakes, N.J., USA) were used for experimental set-ups.” left out, “Described culture techniques and equipment have been used extensively in the laboratory” left out

[4] = tested on: breast cancer cell line 2R-75-1; assay: Morphology of cultured tumor cells, ZR-75-1; conditions: ivermectin 10e-4 to 10e-10 mol/L (FIG. 2)
Method: as §1, with “With supernatant discarded, cell pellets were further resuspended with 5 ml complete medium into 25 cm^2 cell culture flasks (Cell+, Sarstedt, Nümbrecht, Germany). Tumor cells were cultured until sub-confluence and further sub-cultured with Trypsin (0.5%), EDTA (0.2%) solution (T4174, TE-10x, Sigma) in sterile sodium chloride. Culture media was changed two-three times a week. Culture flasks (Cell+, Sarstedt, Nümbrecht, Germany) and culture plates (Falcon/BD, Franklin Lakes, N.J., USA) were used for experimental set-ups.” left out, “Described culture techniques and equipment have been used extensively in the laboratory” left out

Substance: 22,23-dihydroavermectin B1a+22,23-dihydroavermectin B1b [ivermectin]
- Proliferation rate in per cent compared to untreated medium control ([1]; ivermectin 10e-9 mol/L): 109 ± 14%
- Proliferation rate in per cent compared to untreated medium control ([1]; ivermectin 10e-8 mol/L): 112 ± 12%
- Proliferation rate in per cent compared to untreated medium control ([1]; ivermectin 10e-7 mol/L): 106 ± 9%
- Proliferation rate in per cent compared to untreated medium control ([1]; ivermectin 10e-6 mol/L): 91 ± 5%
- Effect on proliferation rate ([1]; ivermectin 100 μM): decreased proliferation rate
- Proliferation rate in per cent compared to untreated medium control ([1]; ivermectin 10e-5 mol/L): 85±11%
- Proliferation rate in per cent compared to untreated medium control ([1]; ivermectin 10e-4 mol/L): 5±1%
- Proliferation rate compared to untreated control ([2]; IVM 1 μmol/L alone): 95.4 ± 0.6%
- Proliferation rate compared to untreated control ([2]; IVM 10 μmol/L alone): 106.4±2.2%
- Proliferation rate compared to untreated control ([2]; IVM 10 μmol/L alone, listed as IVM): 106.4 ± 2.2%
- Proliferation rate compared to untreated control ([2]; IVM 100 μmol/L alone): 45.7 ± 2.2%
- Proliferation rate in per cent compared to untreated medium control ([2]; LNCaP, ivermectin 10e-9 mol/L): 91 ± 4%
- Proliferation rate in per cent compared to untreated medium control ([2]; LNCaP, ivermectin 10e-8 mol/L): 93 ± 5%
- Proliferation rate in per cent compared to untreated medium control ([2]; LNCaP, ivermectin 10e-7 mol/L): 94 ± 5%
- Proliferation rate in per cent compared to untreated medium control ([2]; LNCaP, ivermectin 10e-6 mol/L): 99 ± 4%
- Effect on proliferation rate compared to untreated control ([2]; LNCaP, ivermectin 100 μM alone or in combination): reduced the proliferation rate
- Proliferation rate in per cent compared to untreated medium control ([2]; LNCaP, ivermectin 10e-4 mol/L): 8±1%
- Effect on morphology [3]: affected
- Morphological effects over the concentration series [4]: affected by the highest concentration 10e-4 mol/L only
